One test deals with ID-8 cells. As to the kind of experiment: In vitro inhibition experiment on ID-8 cells. The conditions noted are these: 0 μM to 320 μM, 48 h. The format is cell-based, murine.
Test [1] deals with DEN-induced liver fibrosis in rats. The experiment in a line: DEN-induced rat liver fibrosis model. The note with it: 12 weeks, vs model group. It is filed as in vivo, SD rat. Here is the method: Experimental method: An SD rat liver damage model was constructed through intermittent intraperitoneal injection of DEN. A model group was injected intraperitoneally with DEN at 50 mg/kg twice a week in the first 4 weeks and then once a week in the 5th to 12th weeks. An SMI0 intervention group was divided into SMI0+DEN low-dose and high-dose groups and an SMI0 high-dose continuous administration group, where the SMI0+DEN low-dose and high-dose groups were intragastrically administered with the compound SMI0 at 30 mg/kg and 150 mg/kg 5 min before DEN administration each time, respectively; and the SMI0 high-dose continuous administration group was intragastrically administered with the compound SMI0 at 150 mg/kg every day from the 1st week to the 12th week. At the end of molding, blood was collected from the orbit, and plasma liver function indexes of rats were determined by an automatic biochemical analyzer (model group, n=10 rats; SMI0 compound low-dose group, n=21 rats; SMI0 compound+DEN high-dose group, n=28 rats; and SMI0 compound high-dose continuous administration group, n=24 rats).

The test system of another test is H22 liver cancer cells. The experiment in a line: Direct effect on H22 liver cancer cells. It is filed as cell-based. The note with it: up to 100 μmol/L, 24 h. How it is done:
Experimental method: HepG2 liver cancer cells and H22 liver cancer cells in a logarithmic growth phase each were selected and inoculated into a 96-well plate at a concentration of 1*10^5 cells/mL, and then 100 μL of a basic medium including SMI0 at different concentrations (0 μmol/L, 0.16 μmol/L, 0.8 μmol/L, 4 μmol/L, 20 μmol/L, and 100 μmol/L) was added to each well; and 24 h later, the proliferation activity of HepG2 was determined by a CCK8 method, a migration ability of HepG2 was determined by wound-healing assay, and an apoptosis ability of HepG2 was determined by flow cytometry (FCM).

The test system of test [2] is focal cerebral ischemia-reperfusion injury in rats. The experiment in a line: Focal CIRI rat model with MCAO. The format is in vivo. An excerpt: Experimental method: A focal CTRI rat model with middle cerebral artery occlusion (MCAO) was constructed by a modified Zea-longa suture-occluded method.
For test [3], the system named is liver fibrosis in mice induced by a high-fat diet. As to the kind of experiment: Mouse liver fibrosis model induced by a high-fat diet. The format is in vivo, C57/6J mice. The note with it: SMI0 30 and 150 mg/kg ig daily, 26 weeks, vs model group. How it is done: Experimental method: Male C57/6J mice were fed with a high-fructose, high-fat, and high-cholesterol feed to prepare mouse liver steatosis and hepatitis models, and a control group was fed with a low-fat and low-sugar control feed. An SMI0 intervention group was divided into a low-dose intervention group and a high-dose intervention group, which were intragastrically administered with the compound SMI0 at 30 mg/kg and 150 mg/kg every day from the beginning of modeling to the 26nd week of modeling. At the end of the 26-week experiment, blood was collected from the orbit, a body weight was measured, and then the mice each were sacrificed. The weight and appearance of a liver (color, texture, and presence or absence of nodules of the liver) were recorded. Some liver specimens were subjected to HE staining and then observed, and a steatosis score of mice in each group was recorded; and Masson staining was conducted to evaluate a liver fibrosis status of mice, and an oil red O staining area percentage was determined (model group, n=10 mice; SMI0 compound low-dose group, n=10 […]; and SMI0 compound high-dose group, n=10 […]).

The subject of test [4] is blood glucose level in diabetes rats. As to the kind of experiment: Diabetes rat model induced by a high-fat diet and STZ. The format is in vivo. Here is the method:
Experimental method: A diabetes rat model was constructed by a high-fat diet+single intraperitoneal injection of STZ (40 mg/kg). A FBG level of higher than or equal to 16.7 mmol/L after two weeks of molding was a criterion for successful molding. Modeled rats were divided into various groups according to the blood glucose level. Rats in a model group were administered with NS, and rats in SMI0 low-dose and high-dose intervention groups were administered with the compound SMI0 at 30 mg/kg and 150 mg/kg every day, respectively. The FBG level in rats was determined and recorded regularly every week until the sixth week after administration. 10 rats were provided in each group.

The subject of test [5] is lung cancer cell line Lewis in situ transplanted tumor. As to the kind of experiment: Mouse lung cancer model, in situ implantation of Lewis cells into lungs. It is filed as in vivo, C57BL/6N mice. Here is the method: Experimental method: A female C57 mouse lung cancer model with an in situ transplanted tumor was prepared with a lung cancer cell line Lewis at a cell amount of 2*10^4. C57BL/6N mice were divided into a control group, a model group, a positive drug group, and an SMI0 intervention group, and the modeling took 18 days (control group, n=20; model group, n=20; positive drug group (20 mg/kg), n=15; SMI0 (3.3 mg/kg), n=15; SMI0 (10 mg/kg), n=20; and SMI0 (30 mg/kg), n=20). At the end of the experiment, a body weight of mice in each group was recorded, blood was collected from the orbit, the mice were sacrificed, and lung tissues and tumor tissues were collected and weighed. The weight and appearance of the lung (color, texture, or the like of the lung) were recorded. All tumors of an animal were cumulatively arranged together to indicate the tumorigenesis of the animal, and a cumulative weight of lung tumors in each animal was determined. Some lung specimens were subjected to HE staining, and then the lung lesion and tumorigenesis of mice in each group were observed.
Experimental method: A WB method was used to detect the expression of […] cytokines TGF-β, IL-10, and IL-4, inflammation-associated signaling pathway proteins IL-6/p-STAT3 and p-ERK1/2/ERK1/2, and epithelial-mesenchymal transition (EMT)-associated proteins MMP-2 and MMP-9 in the mouse paracancerous lung tissue of each group and detect the expression of […] proteins caspase3 and Bcl-2 and an autophagy-associated protein p53 in the tumor tissue.

Where [6] appears, read: WB, SMI0 30 mg/kg vs model group, P<0.05.

For the molecule `CC(=O)c1scnc1C` [SMI0], the “inhibitory effect on ID-8” value in the test on ID-8 cells was “no significant inhibitory effect”. In test [1] (SMI0 intervention group (30, 150 mg/kg before DEN; 150 mg/kg daily)), the liver coefficient entry is on record as “reduced to varying degrees”. In test [1] (SMI0 intervention group), the “Collagen I” value was “reduced to varying degrees”, the “liver fibrosis Ishark score” value is recorded as “reduced to varying degrees”, the “liver fibrosis Masson staining area percentage” value is “reduced to varying degrees” and the α-SMA entry is “reduced to varying degrees”. In the test with H22 liver cancer cells, the “effect on the proliferation, migration, and apoptosis of H22 liver cancer cells” value is “no significant inhibitory effect”. Moreover, in test [2] (SMI0 150 mg/kg), the “inhibition rate on the cerebral edema volume” value is 34.39% and the “inhibition rate on the cerebral infarction volume” value was determined as 36.06%. The molecule further came in with a cerebral edema volume in test [2] (SMI0 150 mg/kg ig 10 min before reperfusion, 24 h reperfusion, model group 19.25%) of 12.63%. Also, in test [2] (SMI0 150 mg/kg ig 10 min before reperfusion, 24 h reperfusion, model group 51.03%), the cerebral infarction volume worked out at 32.62%. For the same molecule, the “liver fibrosis level in mice induced by a high-fat diet” value in test [3] is “significantly reduce”. For the same molecule, in test [4] (SMI0 low-dose (30 mg/kg) and high-dose (150 mg/kg) daily, weeks 5 and 6, vs model group, P<0.05), the FBG levels result is given as “significantly reduced”. For the same molecule, the glucose tolerance result in test [4] (glucose tolerance test, SMI0 30 and 150 mg/kg daily) is “significantly improved”. For the same molecule, in test [5] (WB, SMI0 30 mg/kg vs model group, P<0.01), the “expression of the autophagy-associated protein p53 in the tumor tissue” value is recorded as “significantly increased”. In addition, in test [5] (setting [6]), the “expression of Bcl-2 in the tumor tissue” value is listed as “significantly reduced” and the “expression of caspase3 in the tumor tissue” value is “significantly reduced”. Besides, the “expression of proinflammatory cytokines (TGF-β and IL-10), IL-6/p-STAT3, p-ERK1/2/ERK1/2, MMP-2 and MMP-9 in the paratumoral tissue” value in test [5] (WB, SMI0 intervention group vs model group, P<0.05) is “significantly reduced”. The “tumor proliferation inhibition rate” value in test [5] (as high as, SMI0 intervention group (3.3, 10, 30 mg/kg), 18 days, lung tumor weight) is recorded as 68.3%.

(Values after patent US20230277508A1, “USE OF COMPOUND AS CYP2E1 INHIBITOR” (SHANGHAI LING XI BIOTECHNOLOGY DEVELOPMENT CO., LTD., priority 2020, published 2023).)
